Like-named read-outs stand apart in the source and are kept apart here.
Legend:
Assay type in all cases: cell-based
[1] = Cytotoxicity assay; details: human, nontransfected 1321N1 astrocytoma cells
[2] = biological target: T1, h-P2X2R (Homo sapiens, UniProt Q9UBL9); assay: Ca2+ influx assay; details: for inhibition at 50 µM: 1321-N1, read-out: h-P2X2 % inhibition; for activity against h-P2X2 receptor (in words): SAR statement
T1 sequence (Q9UBL9 1-471): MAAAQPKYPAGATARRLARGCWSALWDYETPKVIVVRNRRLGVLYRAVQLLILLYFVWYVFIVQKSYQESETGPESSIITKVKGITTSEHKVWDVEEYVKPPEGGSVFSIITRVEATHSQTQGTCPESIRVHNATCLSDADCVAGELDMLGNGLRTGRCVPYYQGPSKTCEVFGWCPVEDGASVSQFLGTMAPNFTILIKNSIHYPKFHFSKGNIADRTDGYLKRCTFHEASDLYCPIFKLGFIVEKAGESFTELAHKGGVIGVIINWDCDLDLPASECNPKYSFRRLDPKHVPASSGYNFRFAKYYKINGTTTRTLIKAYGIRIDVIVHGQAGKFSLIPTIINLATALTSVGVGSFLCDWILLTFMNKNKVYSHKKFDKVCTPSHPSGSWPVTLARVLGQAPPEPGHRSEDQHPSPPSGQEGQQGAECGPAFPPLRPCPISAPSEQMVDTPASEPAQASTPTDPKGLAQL

[3] = biological target: T2, h-P2X4R (Homo sapiens, UniProt Q99571); assay: Ca2+ influx assay; details: for inhibition at 50 µM: 1321-N1, read-out: h-P2X4 % inhibition
T2 sequence (Q99571 1-388): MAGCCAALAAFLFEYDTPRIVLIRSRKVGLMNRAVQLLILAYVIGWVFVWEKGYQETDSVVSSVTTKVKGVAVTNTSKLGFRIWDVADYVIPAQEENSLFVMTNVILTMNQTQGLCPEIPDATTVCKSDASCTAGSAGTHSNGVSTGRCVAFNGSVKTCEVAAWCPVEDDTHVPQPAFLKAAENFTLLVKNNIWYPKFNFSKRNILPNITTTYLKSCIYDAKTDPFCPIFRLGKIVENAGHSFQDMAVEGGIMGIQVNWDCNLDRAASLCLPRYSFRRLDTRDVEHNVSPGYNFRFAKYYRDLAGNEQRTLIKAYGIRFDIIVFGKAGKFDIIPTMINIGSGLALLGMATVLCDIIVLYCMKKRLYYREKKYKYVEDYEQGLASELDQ

[4] = biological target: h-P2X5 receptor (Homo sapiens, UniProt Q93086); assay: Ca2+ influx assay; details: for inhibition at 50 µM: 1321-N1, read-out: h-P2X5 % inhibition
Chain of h-P2X5 receptor (Q93086 whole entry): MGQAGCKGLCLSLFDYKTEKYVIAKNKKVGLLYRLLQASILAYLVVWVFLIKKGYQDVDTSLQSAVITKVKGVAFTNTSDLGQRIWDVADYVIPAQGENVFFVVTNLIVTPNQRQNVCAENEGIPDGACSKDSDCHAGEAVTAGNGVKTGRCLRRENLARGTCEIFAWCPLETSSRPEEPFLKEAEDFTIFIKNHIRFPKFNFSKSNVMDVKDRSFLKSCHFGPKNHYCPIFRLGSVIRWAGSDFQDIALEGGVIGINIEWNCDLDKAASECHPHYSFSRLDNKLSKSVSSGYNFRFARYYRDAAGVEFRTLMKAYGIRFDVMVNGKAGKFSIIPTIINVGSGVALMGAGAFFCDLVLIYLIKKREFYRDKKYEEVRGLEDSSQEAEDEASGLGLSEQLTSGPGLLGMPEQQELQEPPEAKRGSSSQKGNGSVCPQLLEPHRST

[5] = biological target: T3, h-P2X7R (Homo sapiens, UniProt Q99572); assay: Ca2+ influx assay; details: for inhibition at 50 µM: 1321-N1, read-out: h-P2X7 % inhibition
T3 sequence (Q99572 1-595): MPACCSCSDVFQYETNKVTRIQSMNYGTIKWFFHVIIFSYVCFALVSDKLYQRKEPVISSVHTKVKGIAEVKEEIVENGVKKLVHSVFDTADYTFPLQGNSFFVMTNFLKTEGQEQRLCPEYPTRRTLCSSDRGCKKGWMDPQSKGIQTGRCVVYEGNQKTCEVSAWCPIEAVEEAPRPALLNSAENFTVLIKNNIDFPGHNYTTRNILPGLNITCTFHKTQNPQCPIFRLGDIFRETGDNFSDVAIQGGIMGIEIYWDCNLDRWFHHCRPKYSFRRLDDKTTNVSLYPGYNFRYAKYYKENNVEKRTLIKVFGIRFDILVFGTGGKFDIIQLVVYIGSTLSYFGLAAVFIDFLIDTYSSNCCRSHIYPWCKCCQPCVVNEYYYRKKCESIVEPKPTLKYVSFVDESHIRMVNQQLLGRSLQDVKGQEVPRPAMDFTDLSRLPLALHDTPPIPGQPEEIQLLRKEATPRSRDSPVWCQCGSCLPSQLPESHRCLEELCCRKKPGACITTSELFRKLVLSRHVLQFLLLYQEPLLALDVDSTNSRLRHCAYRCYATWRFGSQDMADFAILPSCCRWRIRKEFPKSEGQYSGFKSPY

[6] = biological target: T3, h-P2X7R
[7] = biological target: T2, h-P2X4R; assay: Mode of inhibition: ATP dose-response curve without and with inhibitor, h-P2X4R; details: h-P2X4R
[8] = biological target: T1, h-P2X2R; assay: Mode of inhibition: ATP dose-response curve without and with inhibitor, h-P2X2R; details: h-P2X2

CC(=NNC(=O)c1ccccc1NS(C)(=O)=O)c1cccs1 [7a, N-(2-(2-(1-(Thiophen-2-yl)ethylidene)hydrazinecarbonyl)phenyl)methanesulfonamide]
cytotoxicity at 24 h, 50 µM [1]: 11.6 ± 0.89%
IC50 [2]: 1.57 ± 0.01 µM
IC50 [3]: > 50 µM
inhibition at 50 µM [3]: 24%
activity against h-P2X4 receptor (in words) ([3]; SAR statement): inactive
IC50 [4]: > 50 µM
inhibition at 50 µM [4]: 29%
IC50 [5]: > 50 µM
inhibition at 50 µM [5]: 45%

CC(=NNC(=O)c1ccccc1NS(C)(=O)=O)c1ccc(Cl)cc1 [6d, N-(2-(2-(1-(4-Chlorophenyl)ethylidene)hydrazinecarbonyl)phenyl)methanesulfonamide]
cytotoxicity at 24 h, 50 µM [1]: 6.96 ± 0.8%
IC50 [2]: > 50 µM
inhibition at 50 µM [2]: 15%
activity against h-P2X2 receptor (in words) [2]: loss of activity
IC50 [3]: > 50 µM
inhibition at 50 µM [3]: 18%
IC50 [4]: > 50 µM
inhibition at 50 µM [4]: 42%
IC50 [5]: > 50 µM
inhibition at 50 µM [5]: 48%

CC(=NNC(=O)c1ccccc1NS(C)(=O)=O)c1cc(C)cs1 [7c, N-(2-(2-(1-(4-Methylthiophen-2-yl)ethylidene)hydrazinecarbonyl)phenyl)methanesulfonamide]
cytotoxicity at 24 h, 50 µM [1]: 5.98 ± 0.09%
IC50 [2]: 1.59 ± 0.01 µM
IC50 [3]: 3.89 ± 0.05 µM
IC50 [4]: > 50 µM
inhibition at 50 µM [4]: 31%
IC50 [5]: 8.94 ± 0.01 µM

2′/3′-O-(4-benzoylbenzoyl)adenosine-5′-triphosphate [BzATP, reference compound]
EC50 ([6]; read-out: EC50 of BzATP-induced response, BzATP without inhibitor): 5.5 µM

CC(=NNC(=O)c1ccccc1NS(C)(=O)=O)c1ccc(C)s1 [7d, N-(2-(2-(1-(5-Methylthiophen-2-yl)ethylidene)hydrazinecarbonyl)phenyl)methanesulfonamide]
cytotoxicity at 24 h, 50 µM [1]: 1.57 ± 0.11%
IC50 [2]: 2.03 ± 0.04 µM
IC50 [3]: 3.21 ± 0.01 µM
IC50 [4]: > 50 µM
inhibition at 50 µM [4]: 46%
IC50 [5]: 4.53 ± 0.11 µM

Cc1ccc(C(=O)Nc2ccc(S(=O)(=O)O)c3cc(S(=O)(=O)O)cc(S(=O)(=O)O)c23)cc1NC(=O)c1cccc(NC(=O)Nc2cccc(C(=O)Nc3cc(C(=O)Nc4ccc(S(=O)(=O)O)c5cc(S(=O)(=O)O)cc(S(=O)(=O)O)c45)ccc3C)c2)c1 [Suramin, reference compound]
IC50 ([4]; read-out: h-P2X5 IC50 ± SEM, Ca2+ influx, ATP at EC80, n = 3): 16.1 ± 0.5 µM

CC(=NNC(=O)c1ccccc1NS(C)(=O)=O)c1ccc(Br)cc1 [6e, N-(2-(2-(1-(4-Bromophenyl)ethylidene)hydrazinecarbonyl)phenyl)methanesulfonamide]
cytotoxicity at 24 h, 50 µM [1]: 16.8 ± 1.1%
IC50 [2]: 3.22 ± 0.05 µM
IC50 [3]: > 50 µM
inhibition at 50 µM [3]: 0%
IC50 [4]: > 50 µM
inhibition at 50 µM [4]: 10%
IC50 [5]: > 50 µM
inhibition at 50 µM [5]: 34%

COc1ccc(C(C)=NNC(=O)c2ccccc2NS(C)(=O)=O)cc1 [6g, N-(2-(2-(1-(4-Methoxyphenyl)ethylidene)hydrazinecarbonyl)phenyl)methanesulfonamide]
cytotoxicity at 24 h, 50 µM [1]: 5.29 ± 0.72%
IC50 [2]: 3.48 ± 0.04 µM
IC50 [3]: > 50 µM
inhibition at 50 µM [3]: 45%
IC50 [4]: > 50 µM
inhibition at 50 µM [4]: 26%
IC50 [5]: 2.09 ± 0.13 µM

CC(=NNC(=O)c1ccccc1NS(C)(=O)=O)c1ccccc1F [6b, N-(2-(2-(1-(2-Fluorophenyl)ethylidene)hydrazinecarbonyl)phenyl)methanesulfonamide]
cytotoxicity at 24 h, 50 µM [1]: 11.4 ± 0.57%
IC50 [2]: 1.91 ± 0.03 µM
IC50 [3]: > 50 µM
inhibition at 50 µM [3]: 40%
IC50 [4]: > 50 µM
inhibition at 50 µM [4]: 16%

CC(=NNC(=O)c1ccccc1NS(C)(=O)=O)c1sccc1Cl [7e, N-(2-(2-(1-(3-Chlorothiophen-2-yl)ethylidene)hydrazinecarbonyl)phenyl)methanesulfonamide]
cytotoxicity at 24 h, 50 µM [1]: 8.33 ± 0.8%
IC50 [2]: 2.17 ± 0.02 µM
IC50 [3]: 1.61 ± 0.04 µM
IC50 [4]: > 50 µM
inhibition at 50 µM [4]: 27%
IC50 [5]: 1.7 ± 0.09 µM
mechanism of receptor inhibition [7]: negative allosteric modulator

CC(=NNC(=O)c1ccccc1NS(C)(=O)=O)c1ccc(I)cc1 [6f, N-(2-(2-(1-(4-Iodophenyl)ethylidene)hydrazinecarbonyl)phenyl)methanesulfonamide]
cytotoxicity at 24 h, 50 µM [1]: 8.31 ± 0.33%
IC50 [2]: 3.52 ± 0.07 µM
IC50 [3]: > 50 µM
inhibition at 50 µM [3]: 32%
IC50 [4]: > 50 µM
inhibition at 50 µM [4]: 21%
IC50 [5]: 10.01 ± 0.07 µM

CC(=NNC(=O)c1ccccc1NS(C)(=O)=O)c1ccc([N+](=O)[O-])s1 [7g, N-(2-(2-(1-(5-Nitrothiophen-2-yl)ethylidene)hydrazinecarbonyl)phenyl)methanesulfonamide]
cytotoxicity at 24 h, 50 µM [1]: 23.8 ± 2.15%
IC50 [2]: > 50 µM
inhibition at 50 µM [2]: 26%
IC50 [3]: 2.44 ± 0.1 µM
IC50 [4]: > 50 µM
inhibition at 50 µM [4]: 19%
IC50 [5]: 6.8 ± 0.21 µM

CC(=NNC(=O)c1ccccc1NS(C)(=O)=O)c1ccc(N)cc1 [6h, N-(2-(2-(1-(4-Aminophenyl)ethylidene)hydrazinecarbonyl)phenyl)methanesulfonamide]
cytotoxicity at 24 h, 50 µM [1]: 18.5 ± 1.22%
IC50 [2]: 0.32 ± 0.01 µM
IC50 [3]: > 50 µM
inhibition at 50 µM [3]: 34%
IC50 [4]: > 50 µM
inhibition at 50 µM [4]: 10%
IC50 [5]: 1.1 ± 0.21 µM
mechanism of receptor inhibition [8]: negative allosteric modulator
mechanism of receptor inhibition [6]: negative allosteric modulator

CC(=NNC(=O)c1ccccc1NS(C)(=O)=O)c1sccc1C [7b, N-(2-(2-(1-(3-Methylthiophen-2-yl)ethylidene)hydrazinecarbonyl)phenyl)methanesulfonamide]
cytotoxicity at 24 h, 50 µM [1]: 10.7 ± 0.54%
IC50 [2]: 1.8 ± 0.02 µM
IC50 [3]: > 50 µM
inhibition at 50 µM [3]: 8%
IC50 [4]: > 50 µM
inhibition at 50 µM [4]: 12%
IC50 [5]: > 50 µM
inhibition at 50 µM [5]: 47%

CC(=NNC(=O)c1ccccc1NS(C)(=O)=O)c1ccc(Cl)s1 [7f, N-(2-(2-(1-(5-Chlorothiophen-2-yl)ethylidene)hydrazinecarbonyl)phenyl)methanesulfonamide]
cytotoxicity at 24 h, 50 µM [1]: 11.6 ± 0.26%
IC50 [2]: > 50 µM
inhibition at 50 µM [2]: 37%
IC50 [3]: 4.03 ± 0.07 µM
IC50 [4]: > 50 µM
inhibition at 50 µM [4]: 0%
IC50 [5]: 1.16 ± 0.03 µM

CC(=NNC(=O)c1ccccc1NS(C)(=O)=O)c1cccc(Br)c1 [6c, N-(2-(2-(1-(3-Bromophenyl)ethylidene)hydrazinecarbonyl)phenyl)methanesulfonamide]
cytotoxicity at 24 h, 50 µM [1]: 15.1 ± 0.44%
IC50 [2]: > 50 µM
inhibition at 50 µM [2]: 0%
activity against h-P2X2 receptor (in words) [2]: loss of activity
IC50 [3]: > 50 µM
inhibition at 50 µM [3]: 24%
IC50 [4]: > 50 µM
inhibition at 50 µM [4]: 0%
IC50 [5]: 5.54 ± 0.05 µM

CC(=NNC(=O)c1ccccc1NS(C)(=O)=O)c1ccccc1 [6a, N-(2-(2-(1-Phenylethylidene)hydrazinecarbonyl)phenyl)methanesulfonamide]
cytotoxicity at 24 h, 50 µM [1]: 14 ± 0.21%
IC50 [2]: > 50 µM
inhibition at 50 µM [2]: 20%
IC50 [3]: > 50 µM
inhibition at 50 µM [3]: 46%
IC50 [4]: > 50 µM
inhibition at 50 µM [4]: 20%
IC50 [5]: 4.21 ± 0.01 µM

Nc1c(S(=O)(=O)O)cc(Nc2ccc(Nc3nc(Cl)nc(Nc4cccc(S(=O)(=O)O)c4)n3)c(S(=O)(=O)O)c2)c2c1C(=O)c1ccccc1C2=O [RB-2, Reactive Blue 2, reference compound]
IC50 [2]: 0.89 ± 0.41 µM
IC50 [5]: 2.79 ± 0.22 µM

From publication PMC8482771 (ACS Omega, 2021)
